Measurements: ChEMBL document CHEMBL4368855, “Novel tricyclic glycal-based TRIB1 inducers that reprogram LDL metabolism in hepatic cells” (Medchemcomm, 2018)
Converted amounts (≈) assume the structure as drawn.

Assays:
[1] = Stability in mouse liver microsomes assessed as parent compound remaining at 1 uM incubated for 60 mins under shaking condition by UPLC/MS analysis; format: ADME, Microsome; conditions: read-out: Stability
[2] = Toxicity in C57BL/6 mouse at 15 to 45 mg/kg, ip administered as single dose measured over 24 hrs; format: organism-based; conditions: in vivo
[3] = Apparent volume of distribution in C57BL/6 mouse liver at 10 mg/kg, ip administered as single dose by mass spectrometry; format: ADME, organism-based; conditions: in vivo
[4] = system: HepG2; assay: Up regulation of TRIB1 gene expression in human HepG2 cells measured after 6 hrs by qRT-PCR analysis; format: functional, cell-based; conditions: HepG2, 6 h
[5] = Half life in C57BL/6 mouse liver at 10 mg/kg, ip administered as single dose by mass spectrometry; format: ADME, organism-based
[6] = Solubility of the compound in 1% DMSO/phosphate buffered saline at pH 7.4 incubated for 18 hrs under shaking condition by UPLC/MS analysis; format: physicochemical
[7] = Tmax in C57BL/6 mouse liver at 10 mg/kg, ip administered as single dose by mass spectrometry; format: ADME, organism-based
[8] = system: HepG2; assay: Down regulation of PCSK9 gene expression in human HepG2 cells measured after 24 hrs by qRT-PCR analysis; format: functional, cell-based; conditions: HepG2, 24 h
[9] = Clearance in C57BL/6 mouse plasma at 10 mg/kg, ip administered as single dose by mass spectrometry; format: ADME, organism-based
[10] = system: HepG2; assay: Up regulation of LDLR gene expression in human HepG2 cells measured after 6 hrs by qRT-PCR analysis relative to control; format: functional
[11] = Half life in C57BL/6 mouse plasma at 10 mg/kg, ip administered as single dose by mass spectrometry; format: ADME, organism-based
[12] = system: HepG2; assay: Up regulation of LDLR gene expression in human HepG2 cells measured after 6 hrs by qRT-PCR analysis; format: functional, cell-based; conditions: HepG2, 6 h
[13] = system: HepG2; assay: Up regulation of TRIB1 gene expression in human HepG2 cells measured after 6 hrs by qRT-PCR analysis relative to control; format: functional
[14] = Apparent volume of distribution in C57BL/6 mouse plasma at 10 mg/kg, ip administered as single dose by mass spectrometry; format: ADME, organism-based; conditions: in vivo
[15] = Cmax in C57BL/6 mouse liver at 10 mg/kg, ip administered as single dose by mass spectrometry; format: ADME, organism-based; parameters: dose 10 mg/kg, route intraperitoneal
[16] = Tmax in C57BL/6 mouse plasma at 10 mg/kg, ip administered as single dose by mass spectrometry; format: ADME, organism-based
[17] = AUC (infinity) in C57BL/6 mouse liver at 10 mg/kg, ip administered as single dose by mass spectrometry; format: ADME, organism-based; parameters: dose 10 mg/kg, route intraperitoneal, time infinity; conditions: in vivo
[18] = Drug uptake in C57BL/6 mouse at 15 to 45 mg/kg, ip administered as single dose measured at 8 to 12 hrs post dose by mass spectrometry; format: ADME, organism-based; conditions: in vivo
[19] = Cmax in C57BL/6 mouse plasma at 10 mg/kg, ip administered as single dose by mass spectrometry; format: ADME, organism-based; parameters: dose 10 mg/kg, route intraperitoneal
[20] = AUC (infinity) in C57BL/6 mouse plasma at 10 mg/kg, ip administered as single dose by mass spectrometry; format: ADME, organism-based; parameters: dose 10 mg/kg, route intraperitoneal, time infinity; conditions: in vivo
[21] = Unbound fraction in C57BL/6 mouse liver at 10 mg/kg, ip administered as single dose by mass spectrometry; format: ADME, organism-based

In the case of CC(C)COC(=O)NC[C@@H]1CC[C@H]2[C@H](COc3ccc(NC(=O)c4ccc(C(F)(F)F)cc4)cc3C(=O)N2C)O1, the remaining at 1 h, 1 µM [1] is reported as 28%, the Activity [2] is reported as “Non-Toxic” and the Vz [3] is reported as 0.99 L/kg. For the same compound, the EC50 [4] was 80 nM, the half-life [5] was 69.6 min and the solubility kinetic at 18 h [6] was 7 µM (≈ 3.95 µg/mL). It also gave a Tmax [7] of 4.8 min, an EC50 [8] of 60 nM and a CL/F [9] of 46.2 mL/min/kg. The max activation [10] was 3.7, the half-life [11] was 67.2 min and the EC50 [12] was 170 nM. It also gave a max activation [13] of 5.8, a Vz [14] of 4.48 L/kg and a Cmax [15] of 13100 ng/mL. The Tmax [16] was 30 min, the AUC [17] was 16803 µg/L/h and the Drug uptake [18] was “Active”. The Cmax [19] was 2310 ng/mL, the AUC [20] was 3616 µg/L/h and the fraction unbound [21] was 0.01.
